From ChEMBL document CHEMBL1150613, “New flavonol oligoglycosides and polyacylated sucroses with inhibitory effects on aldose reductase and platelet aggregation from the flowers of Prunus mume” (J Nat Prod, 2002)

Experiments:
[1] = biological target: Aldo-keto reductase family 1 member B1 (Rattus norvegicus, UniProt P07943); assay: Inhibition of aldose reductase in rat lens homogenates by fluorophotometer
Platelet [2] = assay: Inhibition of thrombin-induced platelet aggregation in washed rabbit platelets at 1.0 mM treated 2 mins before thrombin challenge by aggregometer; type: functional; conditions: Oryctolagus cuniculus
Platelet [3] = assay: Inhibition of thrombin-induced platelet aggregation in washed rabbit platelets at 0.5 mM treated 2 mins before thrombin challenge by aggregometer; type: functional; conditions: Oryctolagus cuniculus
Platelet [4] = assay: Inhibition of thrombin-induced platelet aggregation in washed rabbit platelets at 0.1 mM treated 2 mins before thrombin challenge by aggregometer; type: functional; conditions: Oryctolagus cuniculus
[5] = biological target: Aldo-keto reductase family 1 member B1 (Rattus norvegicus) (UniProt P07943); assay: Inhibition of aldose reductase in rat lens homogenates at 30 uM by fluorophotometry

| SMILES | IC50 [1] [µM] | other results |
| --- | --- | --- |
| CC(=O)O[C@H]1[C@H](Oc2c(-c3ccc(O)c(O)c3)oc3cc(O)cc(O)c3c2=O)O[C@H](CO[C@@H]2O[C@@H](C)[C@H](O)[C@@H](O)[C@H]2O)[C@@H](O)[C@@H]1O | 18 |  |
| CC(=O)Oc1ccccc1C(=O)O [ASPIRIN] |  | inhibition at 1000 µM (Platelet [2]): 53.5%; inhibition at 500 µM (Platelet [3]): 39.4%; inhibition at 100 µM (Platelet [4]): 15.8% |
| COc1cc(-c2oc3cc(O)cc(O)c3c(=O)c2O[C@@H]2O[C@H](CO[C@@H]3O[C@@H](C)[C@H](O)[C@@H](O)[C@H]3O)[C@@H](O)[C@H](O)[C@H]2OC(C)=O)ccc1O | 9.8 |  |
| C[C@@H]1O[C@@H](OC[C@H]2O[C@@H](Oc3c(-c4ccc(O)c(O)c4)oc4cc(O)cc(O)c4c3=O)[C@H](O[C@@H]3O[C@@H](C)[C@H](O)[C@@H](O)[C@H]3O)[C@@H](O)[C@H]2O)[C@H](O)[C@H](O)[C@H]1O | > 30 | inhibition [5]: 40% |
| C[C@@H]1O[C@@H](OC[C@H]2O[C@@H](Oc3c(-c4ccc(O)c(O)c4)oc4cc(O)cc(O)c4c3=O)[C@H](O)[C@@H](O)[C@@H]2O)[C@H](O)[C@H](O)[C@H]1O [RUTIN] | 13 |  |
| C[C@@H]1O[C@@H](O[C@H]2[C@H](Oc3c(-c4ccc(O)c(O)c4)oc4cc(O)cc(O)c4c3=O)O[C@H](CO)[C@H](O)[C@@H]2O)[C@H](O)[C@H](O)[C@H]1O | 18 |  |
| COc1cc(-c2oc3cc(O)cc(O)c3c(=O)c2O[C@@H]2O[C@@H](C)[C@H](O)[C@@H](O)[C@H]2O)ccc1O | 19 |  |
